# Measurements taken from publication PMC4536998 (Oncotarget, 2015).
# pKd: −log10 of the molar value.
# Biological target: T1, embryonic ectoderm development (EED) (Homo sapiens, UniProt O75530)
# T1 construct: recombinant EED
# Experiment: SPR (Biacore […], EED immobilized on CM5 chip, […] Langmuir fit); supported by competitive co-IP against EZH2
# Assay type: binding
# T1 sequence (O75530 2-441): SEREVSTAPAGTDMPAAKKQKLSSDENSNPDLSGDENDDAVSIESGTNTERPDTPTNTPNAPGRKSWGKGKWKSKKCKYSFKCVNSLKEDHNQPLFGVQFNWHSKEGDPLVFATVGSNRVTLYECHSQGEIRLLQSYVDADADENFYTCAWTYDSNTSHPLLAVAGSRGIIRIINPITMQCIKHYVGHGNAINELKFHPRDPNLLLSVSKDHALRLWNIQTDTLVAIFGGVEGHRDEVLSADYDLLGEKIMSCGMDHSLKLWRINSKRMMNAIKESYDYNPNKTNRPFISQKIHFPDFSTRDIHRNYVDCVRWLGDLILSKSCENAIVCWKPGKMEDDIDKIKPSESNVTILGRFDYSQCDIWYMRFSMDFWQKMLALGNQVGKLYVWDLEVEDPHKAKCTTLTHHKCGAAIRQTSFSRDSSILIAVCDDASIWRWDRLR
structure (smiles),measurement,value
"O=C(O[C@@H]1Cc2c(O)cc(O)cc2O[C@@H]1c1cc(O)c(O)c(O)c1)c1cc(O)c(O)c(O)c1 [1E7, EGCG]",pKd,4.82
